From patent US10975037B2 (priority 2018, dated 2021)
Read-outs that look alike come from different tables or passages of the source.

How the values were obtained:
[1] = target: human RORγt ligand binding domain (RORγt LBD) (Homo sapiens (Human), UniProt P51449); assay: RORγt ThermoFluor® assay (thermal shift binding)
Outline: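 Thermal shift with 0.065 mg/mL RORγt LBD and 60 μM 1,8-ANS in 100 mM Hepes pH 7.0, 10 mM NaCl, 2.5 mM GSH, 0.002% Tween-20.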

full-length human RORγt = full-length human RORγt (Homo sapiens (Human), UniProt P51449); assay: RORγt (full-length human) reporter assay, conditions A or B, HEK293T cells; format: cell-based; details: for IC50: RORγt (FL) Reporter Assay A or B, IC50, HEK293T cells; for inhibition at 6 µM: read-out: RORγt (FL) Reporter Assay A or B, % inhibition @ 6 μM, 6 μM compound concentration; for inhibition at 0.67 µM: 0.67 μM compound concentration (footnote ****); for inhibition at 2 µM: 2 μM compound concentration
full-length human RORγt, sequence (P51449 other isoform, or with tags, fused parts or gaps): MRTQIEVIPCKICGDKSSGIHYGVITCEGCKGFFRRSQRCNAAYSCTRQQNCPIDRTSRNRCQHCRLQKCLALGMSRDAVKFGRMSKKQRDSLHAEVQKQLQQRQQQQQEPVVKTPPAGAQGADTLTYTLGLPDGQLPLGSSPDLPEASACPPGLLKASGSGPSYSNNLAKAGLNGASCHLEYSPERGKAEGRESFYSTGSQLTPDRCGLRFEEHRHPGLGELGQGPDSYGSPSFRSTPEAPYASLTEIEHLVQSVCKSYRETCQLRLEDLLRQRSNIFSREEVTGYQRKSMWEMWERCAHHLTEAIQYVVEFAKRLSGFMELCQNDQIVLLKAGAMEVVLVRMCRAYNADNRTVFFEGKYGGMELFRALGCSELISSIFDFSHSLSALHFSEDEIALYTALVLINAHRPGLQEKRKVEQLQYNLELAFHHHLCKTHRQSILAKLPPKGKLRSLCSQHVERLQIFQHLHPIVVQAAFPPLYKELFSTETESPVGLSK
Outline: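 After 16–20 h, dual firefly/Renilla luciferase luminescence was read. Firefly signal was normalized to DMSO and saturating reference compound, then to Renilla, and fitted for IC50; % inhibition is versus DMSO.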

[2] = read-out: ThermoFluor® Assay, Kd
[3] = HEK-293T, read-out: RORγt (FL) Reporter Assay A or B, % inhibition

human RORγt ligand binding domain (RORγt LBD), sequence (P51449 other isoform, or with tags, fused parts or gaps): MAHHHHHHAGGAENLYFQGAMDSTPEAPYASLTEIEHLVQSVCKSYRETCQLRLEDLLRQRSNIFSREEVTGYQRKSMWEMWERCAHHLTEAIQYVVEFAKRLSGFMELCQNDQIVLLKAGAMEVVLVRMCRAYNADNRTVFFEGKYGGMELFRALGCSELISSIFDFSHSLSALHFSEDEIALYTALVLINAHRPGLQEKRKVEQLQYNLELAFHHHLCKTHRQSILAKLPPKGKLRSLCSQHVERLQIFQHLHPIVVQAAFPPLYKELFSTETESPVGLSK

SMILES	Kd [1, 2] [nM]	inhibition at […] (full-length human RORγt; HEK-293T, 0.22 μM compound concentration (footnote *******), read-out: RORγt (FL) Reporter Assay A or B, % inhibition) [%]	IC50 (full-length human RORγt) [nM]	inhibition at 6 µM (full-length human RORγt; HEK-293T) [%]	Kd ([1]; ThermoFluor® Assay, Kd) [nM]	inhibition at 0.67 µM (full-length human RORγt; [3]) [%]	inhibition at 0.3 µM (full-length human RORγt; [3]) [%]	inhibition at 2 µM (full-length human RORγt; [3]) [%]
CCn1nc(C(=O)NC[C@H]2CC[C@H](S(C)(=O)=O)CC2)c(Cl)c1-c1ccc(CC(C)(C)C(F)(F)F)cc1 [Example 168, 4-Chloro-1-ethyl-N-(((1r,4r)-4-(methylsulfonyl)cyclohexyl)methyl)-5-(4-(3,3,3-trifluoro-2,2-dimethylpropyl)phenyl)-1H-pyrazole-3-carboxamide]	4	71	18					
CC(C)(O)Cn1nc(C(=O)NC[C@]2(O)CC[C@@H](S(C)(=O)=O)CC2)c(Cl)c1-c1ccc(CC(C)(C)C(F)(F)F)cc1OC(F)F [Example 144, 4-Chloro-5-(2-(difluoromethoxy)-4-(3,3,3-trifluoro-2,2-dimethylpropyl)phenyl)-1-(2-hydroxy-2-methylpropyl)-N-(((1s,4s)-1-hydroxy-4-(methylsulfonyl)cyclohexyl)methyl)-1H-pyrazole-3-carboxamide]	11		31	112				
CCCn1nc(C(=O)NC[C@H]2CC[C@H](S(C)(=O)=O)CC2)c(Cl)c1-c1ccc(C[C@H](C)C(F)(F)F)cc1OC (single isomer, unassigned) [Example 41, 4-Chloro-5-(2-methoxy-4-((S*)-3,3,3-trifluoro-2-methylpropyl)phenyl)-N-(((1r,4S)-4-(methylsulfonyl)cyclohexyl)methyl)-1-propyl-1H-pyrazole-3-carboxamide]			8		0.28	98		
Cc1c(C(=O)NC[C@]2(O)CC[C@@H](S(C)(=O)=O)CC2)nn(C)c1-c1ccc(CC(C)(C)C(F)(F)F)cc1OC(F)F [Example 157, 5-(2-(Difluoromethoxy)-4-(3,3,3-trifluoro-2,2-dimethylpropyl)phenyl)-N-(((1s,4s)-1-hydroxy-4-(methylsulfonyl)cyclohexyl)methyl)-1,4-dimethyl-1H-pyrazole-3-carboxamide]	0.8		13				101	
CCn1nc(C(=O)NC[C@H]2CC[C@H](S(C)(=O)=O)CC2)c(Cl)c1-c1ccc(N[C@H](C)C(F)(F)F)cc1F [Example 181, 4-Chloro-1-ethyl-5-(2-fluoro-4-(((R)-1,1,1-trifluoropropan-2-yl)amino)phenyl)-N-(((1r,4R)-4-(methylsulfonyl)cyclohexyl)methyl)-1H-pyrazole-3-carboxamide]	7		45					101
CCn1nc(C(=O)NC[C@H]2CC[C@H](S(C)(=O)=O)CC2)c(Cl)c1-c1ccc(CCC(F)(F)F)cc1C(F)(F)F [Example 171, 4-Chloro-1-ethyl-N-(((1r,4r)-4-(methylsulfonyl)cyclohexyl)methyl)-5-(2-(trifluoromethyl)-4-(3,3,3-trifluoropropyl)phenyl)-1H-pyrazole-3-carboxamide]	14		440					24
CCOC(=O)[C@]1(CNC(=O)c2nn(CC)c(-c3ccc(N[C@H](C)C(F)(F)F)cc3OC)c2Cl)CC[C@H](S(C)(=O)=O)CC1 (relative stereo) [Example 94, Ethyl (1s*,4S*)-1-((4-chloro-1-ethyl-5-(2-methoxy-4-(((R)-1,1,1-trifluoropropan-2-yl)amino)phenyl)-1H-pyrazole-3-carboxamido)methyl)-4-(methylsulfonyl)cyclohexane-1-carboxylate]			6	101	0.22			
CCn1nc(C(=O)NC[C@H]2CC[C@H](S(C)(=O)=O)CC2)c(Cl)c1-c1c(F)cc(CC(C)C(F)(F)F)cc1F (stereo partly drawn) [Example 197, 4-Chloro-5-(2,6-difluoro-4-(3,3,3-trifluoro-2-methylpropyl)phenyl)-1-ethyl-N-(((1r,4r)-4-(methylsulfonyl)cyclohexyl)methyl)-1H-pyrazole-3-carboxamide]	2		21			70		
